{
  "source": "patent US20150329498A1",
  "about": "“IRAK INHIBITORS AND USES THEREOF” (Nimbus Iris, Inc., priority 2014, published 2015)",
  "key": {"[1]": {"system": "IL8 production in THP-1 cells", "assay": "LPS induced IL8 production assay in THP-1 cells", "format": "cell-based", "details": "Homo sapiens, 300 ng/mL LPS, measured at 16 hours", "procedure": "Provided compounds were also assayed in an LPS (Lipopolysaccharide) or R848 (TLR-7 agonist) induced cytokine (TNFα and IL8) production assay in THP-1 cells, human white blood cells (hWBC), and human whole blood. The exemplary protocol for this assay in THP-1 cells was as follows below.\nTHP-1 cells from ATCC (TIB-202) were cultured in RPMI Medium 1640 (Invitrogen, Cat No. A10491-01), 10% fetal bovine serum (Invitrogen, Cat No. 10099141, Lot No. 8172882) containing 100 U/mL Penicillin, 100 μg/mL streptomycin (Invitrogen, Cat No. 15140-122), and 50 uM 2-Mercaptoethanol (Invitrogen, Cat No. 21985023). LPS-EK ultra pure (Invivogen, Cat No. tlrl-peklps) was used to induce IL8 and TNFα production, that was detected in the cell culture supernatant by IL8 HTRF kit (Cisbio, Cat No. 62IL8PEB) and TNFα HTRF kit (Cisbio, Cat No. 62TNFPEB), as per manufacturer instructions. Cells were cultured in 96 well assay plates at 100,000 cells per well, and compounds diluted in final 0.3% DMSO were pre-incubated with cells for 1 hour prior to stimulation with 300 ng/mL LPS. Cytokine production in cell supernatant was measured at 5 hours for TNFα production, and at 16 hours for IL8 production and assessment of cell viability.\nThe compound numbers correspond to the compound numbers in Table 1. Compounds having an activity designated as “A” provided an IC50≦0.5 μM; compounds having an activity designated as “B” provided an IC50 of 0.5-5.0 μM; compounds having an activity designated as “C” provided an IC50>5.0 μM. “NA” stands for “not assayed.”"}, "[2]": {"system": "IFNα production in human whole blood", "assay": "R848 induced IFNα production in human whole blood", "format": "cell-based", "details": "0.2 uM R848, 20 hours", "procedure": "Compounds of the present invention were also studied in in vitro cytokine production assays. Exemplary protocols follow.\nHuman whole blood and hWBC assays: Human whole blood was diluted by combining whole blood with no serum RPMI medium at a ratio of 1:1. 180 ul/well of the diluted whole blood/well was added to a 96 well plate. For WBC assay 100,000 cells/well were seeded in a 96-well plate with a volume of 100 ul/well. To make the compound master plate 9 ul of 30 mM compound solution was added into the wells in the assigned rows, then serial solutions with 4x dilutions were made in DMSO. That is, 9 uL of 100% DMSO were added into each of the rest wells and 3 uL of compound solution was taken from the one-step higher concentration solution and mixed well with the DMSO. An intermediate compound dilution plate was made by mixing 4 uL of the compound solution from the compound master plate with 196 uL of no serum RPMI medium. hWBC or human whole blood was treated for 0.5 hour by adding 20 uL/well of the compound and the control solutions from the intermediate compound plate to the cell plate. 80 uL/well or 20 uL/well of stimulant were then added to the human whole blood or hWBC respectively. […] The supernatants were then collected and cytokine levels were measured with ELISA for TNFα (R&D Systems, #DY210) and IFNα (R&D Systems, #41100-2) per manufacturer's instruction."}},
  "note": "pIC50: −log10 of the molar value.",
  "data": [
    {"smiles": "N#Cc1ccc2ncnc(N[C@H]3CC[C@H](N4CCOCC4)CC3)c2c1", "note": "[Compound I-3, 4-(((1r,4r)-4-morpholinocyclohexyl)amino)quinazoline-6-carbonitrile]", "values": [
      {"measurement": "pIC50", "setting": "[1]", "value": "≥ 6.30"},
      {"measurement": "pIC50", "setting": "[2]", "value": "6.00 to 6.60"}
    ]},
    {"smiles": "N#Cc1ccc2ncnc(N[C@H]3CC[C@H](N4CCC5(CC4)CC5)CC3)c2c1", "note": "[Compound I-7, 4-(((1r,4r)-4-(6-azaspiro[2.5]octan-6-yl)cyclohexyl)amino)-quinazoline-6-carbonitrile]", "values": [
      {"measurement": "pIC50", "setting": "[1]", "value": "≥ 6.30"},
      {"measurement": "pIC50", "setting": "[2]", "value": "6.00 to 6.60"}
    ]}
  ]
}
